According to patent publication US11578343B2, “CAS9 proteins including ligand-dependent inteins” (President and Fellows of Harvard College, priority 2014, dated 2023):

Assays:
Format in all cases: cell-based, human
[1] = tested on: EMX, VEGF, and CLTA genomic loci; assay: High-throughput DNA sequencing of genome modifications, summary over on-target and off-target sites
Description: (§1) We assayed these Cas9:sgRNA combinations in human cells for their ability to modify the three on-target loci as well as 11 known off-target genomic sites (Table 3)^4,5,10,13. Cells were treated with or without 1 μM 4-HT during transfection, and after 12 h the media was replaced with fresh media lacking 4-HT. […] Genomic DNA was isolated 60 h post-transfection and analyzed by high-throughput DNA sequencing
(§2) High-throughput DNA sequencing of genome modifications. HEK293-GFP stable cells were transfected with plasmids expressing Cas9 (500 ng) and sgRNA (125 ng) as described above. […] 4-HT (1 μM final), where appropriate, was added during transfection. 12 h after transfection, the media was replaced with full serum media without 4-HT. Genomic DNA was isolated and pooled from three biological replicates 60 h after transfection using a previously reported^11 protocol with a DNAdvance Kit (Agencourt). 150 ng or 200 ng of genomic DNA was used as a template to amplify by PCR the on-target and off-target genomic sites with flanking HTS primer pairs described previously^11. PCR products were purified using RapidTips (Diffinity Genomics) and quantified using the PicoGreen dsDNA Assay Kit (Invitrogen). Purified DNA was PCR amplified with primers containing sequencing adaptors, purified with the MinElute PCR Purification Kit (Qiagen) and AMPure XP PCR Purification (Agencourt). Samples were sequenced on a MiSeq high-throughput DNA sequencer (Illumina), and sequencing data was analyzed as described previously^4.
(§3) Sensitivity limit of off-target cleavage assays. We used paired end sequencing to identify indels caused by genomic on- and off-target cleavage. […] A 1 ng sample of human gDNA represents only ˜330 unique genomes, and thus only ˜330 unique copies of each genomic site are present. PCR amplification for each genomic target was performed on a total of 150 ng or 200 ng of input gDNA, which provides amplicons derived from at most 50,000 or 65,000 unique gDNA copies, respectively. Therefore, the high-throughput sequencing assay cannot detect rare genome modification events that occur at a frequency of less than approximately 1 in 50,000 (0.002%). When comparing between two conditions, such as wt Cas9 vs. intein-Cas9, this threshold becomes approximately 10 in 50,000 (0.02%) when using the Fisher exact test and a conservative multiple comparison correction (Bonferroni with 14 samples). See also Minoche, A. E., Dohm, J. C., & Himmelbauer, H. Evaluation of genomic high-throughput sequencing data generated on Illumina HiSeq and Genome Analyzer systems. Genome Biology 12, R112 (2011).

EMX On = assay: High-throughput DNA sequencing of genome modifications; conditions: 500 ng Cas9 plasmid; for Mod. Freq (indels/total sequences), EMX On: Table 4; for Mod Freq (indels/total sequences), EMX On: +4-HT, Table 6
Description: as §1, §2, §3

EMX Off 2 = assay: as above; conditions: 500 ng Cas9 plasmid; for Mod. Freq (indels/total sequences), EMX Off 2: Table 4
Description: as §1, §2, §3

CLTA Off 2 = assay: as above; conditions: 500 ng Cas9 plasmid; for Mod. Freq (indels/total sequences), CLTA Off 2: Table 4
Description: as §1, §2, §3

VEGF Off 2 = assay: as above; conditions: 500 ng Cas9 plasmid; for Mod. Freq (indels/total sequences), VEGF Off 2: Table 4
Description: as §1, §2, §3

VEGF Off 3 = assay: as above; conditions: 500 ng Cas9 plasmid; for Mod. Freq (indels/total sequences), VEGF Off 3: Table 4
Description: as §1, §2, §3

VEGF On = assay: as above; conditions: 500 ng Cas9 plasmid; for Mod. Freq (indels/total sequences), VEGF On: Table 4
Description: as §1, §2, §3

CLTA Off 3 = assay: as above; conditions: 500 ng Cas9 plasmid; for Mod. Freq (indels/total sequences), CLTA Off 3: Table 4
Description: as §1, §2, §3

EMX Off 1 = assay: as above; conditions: 500 ng Cas9 plasmid; for Mod. Freq (indels/total sequences), EMX Off 1: Table 4
Description: as §1, §2, §3

EMX Off 3 = assay: as above; conditions: 500 ng Cas9 plasmid; for Mod. Freq (indels/total sequences), EMX Off 3: Table 4
Description: as §1, §2, §3

CLTA Off 1 = assay: as above; conditions: 500 ng Cas9 plasmid; for Mod. Freq (indels/total sequences), CLTA Off 1: Table 4
Description: as §1, §2, §3

CLTA On = assay: as above; conditions: 500 ng Cas9 plasmid; for Mod. Freq (indels/total sequences), CLTA On: Table 4
Description: as §1, §2, §3

VEGF Off 4 = assay: as above; conditions: 500 ng Cas9 plasmid; for Mod. Freq (indels/total sequences), VEGF Off 4: Table 4
Description: as §1, §2, §3

EMX Off 4 = assay: as above; conditions: 500 ng Cas9 plasmid; for Mod. Freq (indels/total sequences), EMX Off 4: Table 4
Description: as §1, §2, §3

VEGF Off 1 = assay: as above; conditions: 500 ng Cas9 plasmid; for Mod. Freq (indels/total sequences), VEGF Off 1: Table 4
Description: as §1, §2, §3

## intein(Cys574)-Cas9: Cas9 with 37R3-2 intein replacing Cys574 (SEQ ID NO: 33)
[1]; EMX locus, all four off-target sites, +4-HT, similar on-target cleavage
  Off-target modification frequency, average fold lower than wild-type Cas9 (80 ng): 4 fold
[1]; absence of 4-HT
  Activity compared to wild-type Cas9: much less active
[1]; presence of 4-HT
  Activity compared to wild-type Cas9: slightly less active than wild-type Cas9
EMX On; +4-HT (1 μM, 12 h)
  Mod. Freq (indels/total sequences), EMX On: 9.47%
EMX On; listed as intein-Cas9 (C574)
  Mod Freq (indels/total sequences), EMX On: 6.42%
EMX On; listed as intein-Cas9(C574)
  Mod Freq (indels/total sequences), EMX On: 6.4%
EMX On; −4-HT
  Mod. Freq (indels/total sequences), EMX On: 0.99%
EMX Off 2; +4-HT (1 μM, 12 h)
  Mod. Freq (indels/total sequences), EMX Off 2: 0.04%
EMX Off 2; +4-HT, Table 6
  Mod Freq (indels/total sequences), EMX Off 2: 0.02%
EMX Off 2; −4-HT
  Mod. Freq (indels/total sequences), EMX Off 2: 0.01%
CLTA Off 2; +4-HT (1 μM, 12 h)
  Mod. Freq (indels/total sequences), CLTA Off 2: 0.02%
CLTA Off 2; +4-HT, Table 6
  Mod Freq (indels/total sequences), CLTA Off 2: 0.00%
CLTA Off 2; −4-HT
  Mod. Freq (indels/total sequences), CLTA Off 2: 0.00%
VEGF Off 2; +4-HT (1 μM, 12 h)
  Mod. Freq (indels/total sequences), VEGF Off 2: 0.77%
VEGF Off 2; +4-HT, Table 6
  Mod Freq (indels/total sequences), VEGF Off 2: 0.38%
VEGF Off 2; −4-HT
  Mod. Freq (indels/total sequences), VEGF Off 2: 0.05%
VEGF Off 3; +4-HT (1 μM, 12 h)
  Mod. Freq (indels/total sequences), VEGF Off 3: 0.19%
VEGF Off 3; +4-HT, Table 6
  Mod Freq (indels/total sequences), VEGF Off 3: 0.07%
VEGF Off 3; −4-HT
  Mod. Freq (indels/total sequences), VEGF Off 3: 0.01%
VEGF On; +4-HT (1 μM, 12 h)
  Mod. Freq (indels/total sequences), VEGF On: 3.03%
VEGF On; +4-HT, Table 6
  Mod Freq (indels/total sequences), VEGF On: 2.31%
VEGF On; −4-HT
  Mod. Freq (indels/total sequences), VEGF On: 0.85%
CLTA Off 3; +4-HT (1 μM, 12 h)
  Mod. Freq (indels/total sequences), CLTA Off 3: 0.01%
CLTA Off 3; +4-HT, Table 6
  Mod Freq (indels/total sequences), CLTA Off 3: 0.01%
CLTA Off 3; −4-HT
  Mod. Freq (indels/total sequences), CLTA Off 3: 0.00%
EMX Off 1; +4-HT (1 μM, 12 h)
  Mod. Freq (indels/total sequences), EMX Off 1: 0.27%
EMX Off 1; +4-HT, Table 6
  Mod Freq (indels/total sequences), EMX Off 1: 0.17%
EMX Off 1; −4-HT
  Mod. Freq (indels/total sequences), EMX Off 1: 0.01%
EMX Off 3; +4-HT (1 μM, 12 h)
  Mod. Freq (indels/total sequences), EMX Off 3: 0.29%
EMX Off 3; +4-HT, Table 6
  Mod Freq (indels/total sequences), EMX Off 3: 0.25%
EMX Off 3; −4-HT
  Mod. Freq (indels/total sequences), EMX Off 3: 0.02%
CLTA Off 1; +4-HT (1 μM, 12 h)
  Mod. Freq (indels/total sequences), CLTA Off 1: 0.04%
CLTA Off 1; +4-HT, Table 6
  Mod Freq (indels/total sequences), CLTA Off 1: 0.03%
CLTA Off 1; −4-HT
  Mod. Freq (indels/total sequences), CLTA Off 1: 0.01%
CLTA On; +4-HT (1 μM, 12 h)
  Mod. Freq (indels/total sequences), CLTA On: 7.65%
CLTA On; +4-HT, Table 6
  Mod Freq (indels/total sequences), CLTA On: 6.35%
CLTA On; −4-HT
  Mod. Freq (indels/total sequences), CLTA On: 1.81%
VEGF Off 4; +4-HT (1 μM, 12 h)
  Mod. Freq (indels/total sequences), VEGF Off 4: 1.40%
VEGF Off 4; +4-HT, Table 6
  Mod Freq (indels/total sequences), VEGF Off 4: 0.91%
VEGF Off 4; −4-HT
  Mod. Freq (indels/total sequences), VEGF Off 4: 0.07%
EMX Off 4; +4-HT (1 μM, 12 h)
  Mod. Freq (indels/total sequences), EMX Off 4: 1.13%
EMX Off 4; +4-HT, Table 6
  Mod Freq (indels/total sequences), EMX Off 4: 0.85%
EMX Off 4; −4-HT
  Mod. Freq (indels/total sequences), EMX Off 4: 0.09%
VEGF Off 1; +4-HT (1 μM, 12 h)
  Mod. Freq (indels/total sequences), VEGF Off 1: 4.68%
VEGF Off 1; +4-HT, Table 6
  Mod Freq (indels/total sequences), VEGF Off 1: 3.18%
VEGF Off 1; −4-HT
  Mod. Freq (indels/total sequences), VEGF Off 1: 0.29%
